The values below come from patent US12173088B2, “Anti-microbial peptides” (priority 2018, dated 2024).

What is called MIC is the lowest concentration found to suppress growth. A lower MIC goes with a more susceptible organism.

In brackets after ≈: the same amount, converted by molar mass. Read-outs that look alike come from different tables or passages of the source. Peptide text beside a SMILES is read from it. Where only a bound is given, the exact number is not on record here.

One data set concerns S. aureus ΔmprF mutant. As to conditions: Table 17; strain ΔmprF. Here is the method:
(§1) The antibacterial activity of peptides was evaluated using a standard broth microdilution protocol with minor modifications (Mishra, et al. (2017) Acta Biomater., 49:316-328). In brief, logarithmic phase bacterial cultures (i.e., optical density at 600 nm≈0.5) were diluted to 0.001 OD and aliquoted 90 μL per well into a 96-well polystyrene microplate. Added 10 μL peptides per well with various concentrations, plates were incubated at 37° C., overnight. Post incubation the plates are read at 630 nm using a ChroMate® Microplate Reader (GMI). […] To study the influence of medium conditions on the antimicrobial activity of peptides against S. aureus USA300 at different pHs (6.8, 7.2, and 8.0), 150 mM sodium chloride (NaCl), 5-10% of human serum, mouse plasma, and peritoneal fluid were included into the assays.

Data set [1] concerns S. aureus JE2 (wild type). The method, then: as §1
Data set [2] can be described thus: Toxicity to cells. The format is cell-based. Particulars: human, MRC9 human lung fibroblasts; read-out: LC50 (the source's name).
Data set [3] is described as follows: Stability in mouse plasma and peritoneal fluid. It is filed as in vitro ADME. As to conditions: murine peritoneal fluids or plasma for 3 hours. The method, then:
Stability of horine and verine was evaluated in the presence of mouse plasma and peritoneal fluid using SDS-PAGE electrophoresis. […] […] The gels were stained using the Coomassie Brilliant Blue G-250 dye.

The nature of data set [4]: Toxicity to cells. The format is cell-based. As to conditions: splenocytes (mouse spleen), Spleenocytes, read-out: LC50 (the source's name).
In data set [5] the test system is human red blood cells (hRBCs). The data set is described as follows: Hemolytic assay. The format is cell-based. The method, boiled down:
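HL50 marks the peptide level lysing half of a 2% (v/v) suspension of washed human erythrocytes after 1 h at 37 °C. Released hemoglobin measured at 545 nm, scaled between PBS (0%) and Triton X-100 (2% or 1%; 100%). Selectivity index computed as HL50 over MIC.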

A short description of data set [6]: Cell viability assay (MTS). It is filed as cell-based. Particulars: human, read-out: LC50. Here is the method:
Peptides assessed for potential cytotoxicity using HepaRG (human hepatic progenitor cell line) and HEK-293 (human embryonic kidney) cells. Briefly, cells were seeded at a density of 1×10^4 per well in a tissue culture 96-well plate. For HepaRG cells, the working medium is prepared by adding the HepaRG Supplement to 100 ml/500 ml of Williams' Medium E and 1 ml/5 ml of GlutaMAX-1. For HEK-293 cells, DMEM supplemented with 10% fetal bovine serum (FBS) for both cell lines, and incubated at 37° C. in a 5% CO2 atmosphere for 24 hours. Culture medium was aspirated and replaced with fresh serum free media. Cells were exposed to different concentration of horine and verine for 1 hour at 37° C. in a 5% CO2 atmosphere. Post-incubation, the cells were washed and incubated with 100 μL of HepaRG specific/DMEM media containing 20 μL of MTS reagent for 2 hours at 37° C. Absorbance was read at 492 nm using a ChroMate® microplate reader (GMI).

The test system of a further data set is E. coli ampC E416-7. The format is cell-based, Escherichia coli. As to conditions: Table 7. From the text: The bacterial strains used include the Gram-positive strains Staphylococcus aureus USA300 LAC, S. epidermidis 1457, and Bacillus subtilis 168, as well as the Gram-negative isolates Escherichia coli K12 and Acinetobacter baumannii B2367-12. Additional, drug resistance strains include Gram-positive Enterococcus faecium V286-17 (VRE) and S. aureus M838-17 (MRSA) and Gram-negative E. coli E423-17, E. coli E416-17 (ampC), and P. aeruginosa E411-17. Bacteria were cultivated in tryptic soy broth (TSB) (BD Bioscience, MD).
The antibacterial activity of peptides was evaluated using a standard broth microdilution protocol with minor modifications as described (Mishra, et al. (2012) J. Am. Chem. Soc., 134:12426-12429). In brief, logarithmic phase bacterial cultures (i.e., optical density at 600 nm≈0.5) were diluted to OD600 0.001 and partitioned into a 96-well polystyrene microplate at 90 μL per well. After treatment with 10 μL of peptide solutions two fold diluted to various concentrations, microplates were incubated at 37° C. overnight and read on a ChroMate® 4300 Microplate Reader at 630 nm (GMI, Ramsey, MN). […] To study the influence of medium conditions on the antimicrobial activity of peptides against S. aureus USA300, up to 200 mM sodium chloride (NaCl), 2 mM of calcium chloride, 5-10% of human serum, mouse plasma, fluid, or supernatants of tissue homogenates were included into the assays.

[7] abbreviates: HEK-293 (human embryonic kidney) cells, HEK293.
Setting [8] is: HepaRG (human hepatic progenitor cell line).

On to `CC(C)C[C@H](NC(=O)[C@H](Cc1c[nH]c2ccccc12)NC(=O)[C@H](Cc1c[nH]c2ccccc12)NC(=O)[C@@H](N)Cc1c[nH]c2ccccc12)C(=O)N[C@@H](CCCNC(=N)N)C(=O)N[C@@H](CCCNC(=N)N)C(=O)N[C@@H](CCCNC(=N)N)C(=O)N[C@@H](Cc1c[nH]c2ccccc12)C(N)=O` [Horine, WWWLRRRW] (H-WWWLRRRW-NH2; N-terminus and C-terminus assumed), for which the values for the MIC (in the data set on S. aureus ΔmprF mutant; in data set [1] (JE2 (wild type))) were 2 µM (≈ 2.69 µg/mL) and 4 µM (≈ 5.37 µg/mL), respectively. In addition, the CC50 in “Toxicity to cells [2]” was over 35 µM; in “Toxicity to cells [4]” it was over 50 µM. The Stability after incubation result in data set [3] was “stable and active”. Also, in data set [5], the HL50 is 150 µM. For the same compound, the CC50 at 1 hour in data set [6] (setting [7]) was over 100 µM; in data set [6] (setting [8]) it was over 80 µM.
With `CC(C)C[C@H](NC(=O)[C@H](CC(C)C)NC(=O)[C@H](CCCCN)NC(=O)[C@H](CC(C)C)NC(=O)CNC(=O)[C@H](CC(C)C)NC(=O)[C@H](CO)NC(=O)[C@H](CC(C)C)NC(=O)[C@H](CC(C)C)NC(=O)[C@H](CC(C)C)NC(=O)[C@H](CCCCN)NC(=O)[C@H](CC(C)C)NC(=O)CN)C(N)=O` [DFT561, GLKLLLSLGLKLL] (H-GLKLLLSLGLKLL-NH2; N-terminus and C-terminus assumed), the “MIC E. coli ampC E416-7” value against E. coli ampC E416-7 was over 50 µM.
For the compound `CC(C)[C@H](NC(=O)[C@H](Cc1c[nH]c2ccccc12)NC(=O)[C@H](Cc1c[nH]c2ccccc12)NC(=O)[C@H](Cc1c[nH]c2ccccc12)NC(=O)[C@H](Cc1c[nH]c2ccccc12)NC(=O)[C@H](CCCNC(=N)N)NC(=O)[C@H](CCCNC(=N)N)NC(=O)[C@@H](N)CCCNC(=N)N)C(N)=O` [Verine, RRRWWWWV] (H-RRRWWWWV-NH2; N-terminus and C-terminus assumed), the minimal inhibitory concentration (MIC) in the data set with S. aureus ΔmprF mutant was 2 µM (≈ 2.66 µg/mL); in data set [1] (Table 17, strain JE2), 4 µM (≈ 5.32 µg/mL). Besides, the CC50 in the data set “Toxicity to cells [2]” is over 25 µM; in “Toxicity to cells [4]” it was over 12.5 µM. The Stability after incubation entry in data set [3] was “stable and active”. In data set [5] (Table 12), the HL50 is listed as 130^2 μM. Besides, the CC50 at 1 hour in data set [6] (setting [7]) and in data set [6] (setting [8]) was over 80 µM each time.
